One data set concerns the target Cytochrome P450 2A13 (Homo sapiens, UniProt Q16696). The experiment in a line: Mechanism based inhibition of human cytochrome P450 2A13 measured by coumarin 7-hydroxylation and testosterone 15-hydroxylation. The data set is classed as ADME.
In another data set the target is T1, Cytochrome P450 2B1 (Rattus norvegicus, UniProt P00176).
T1 sequence (P00176 whole entry): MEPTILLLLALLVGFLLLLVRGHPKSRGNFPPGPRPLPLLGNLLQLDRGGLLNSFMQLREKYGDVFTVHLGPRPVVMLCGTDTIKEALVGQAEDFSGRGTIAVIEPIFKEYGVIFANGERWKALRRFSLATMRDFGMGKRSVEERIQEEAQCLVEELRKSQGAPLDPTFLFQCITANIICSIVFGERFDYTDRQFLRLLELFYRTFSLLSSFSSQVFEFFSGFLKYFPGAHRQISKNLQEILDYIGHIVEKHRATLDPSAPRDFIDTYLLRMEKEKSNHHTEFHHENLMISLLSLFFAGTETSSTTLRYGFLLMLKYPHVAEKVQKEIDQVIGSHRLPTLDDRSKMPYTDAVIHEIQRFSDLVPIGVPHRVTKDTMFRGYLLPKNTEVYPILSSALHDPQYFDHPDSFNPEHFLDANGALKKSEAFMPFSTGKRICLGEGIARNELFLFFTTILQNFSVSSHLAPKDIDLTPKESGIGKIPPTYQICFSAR
Briefly: Mechanism based inhibition of rat cytochrome P450 CYP2B1 measured by androstenedione 16-beta-hydroxylation and R- and S- warfarin hydroxylation. The data set is classed as ADME.

Another data set has as its target T2, Cytochrome P450 1A2 (Homo sapiens, UniProt P05177).
T2 sequence (P05177 whole entry): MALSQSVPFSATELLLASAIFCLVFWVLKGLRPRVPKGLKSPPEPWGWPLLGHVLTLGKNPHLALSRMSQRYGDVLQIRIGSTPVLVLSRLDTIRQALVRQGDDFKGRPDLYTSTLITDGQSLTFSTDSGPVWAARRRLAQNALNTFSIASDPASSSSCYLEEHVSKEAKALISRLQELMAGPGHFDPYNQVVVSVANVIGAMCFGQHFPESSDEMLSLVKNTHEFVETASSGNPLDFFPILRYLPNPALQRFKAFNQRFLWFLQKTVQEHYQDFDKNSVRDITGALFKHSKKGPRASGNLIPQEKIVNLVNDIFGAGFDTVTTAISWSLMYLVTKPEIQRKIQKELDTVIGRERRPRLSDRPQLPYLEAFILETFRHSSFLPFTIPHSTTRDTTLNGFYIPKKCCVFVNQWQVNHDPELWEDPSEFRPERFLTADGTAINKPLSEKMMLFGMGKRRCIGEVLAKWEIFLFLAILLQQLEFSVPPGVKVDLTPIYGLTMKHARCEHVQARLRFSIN
The experiment in a line: (§1) Mechanism based inhibition of human cytochrome P450 1A2 measured by 7-ethoxyresorufin O-deethylation (EROD).

In data set [1] the target is T3, CYP1A2 (Homo sapiens, UniProt P05177).
T3 sequence (P05177 whole entry): T2 sequence (P05177 whole entry)
Described as §1. The settings on record: human, probe 7-ethoxyresorufin (O-deethylation, EROD).

Data set [2] deals with T4, Cytochrome P450 2B6 (Homo sapiens, UniProt P20813).
T4 sequence (P20813 whole entry): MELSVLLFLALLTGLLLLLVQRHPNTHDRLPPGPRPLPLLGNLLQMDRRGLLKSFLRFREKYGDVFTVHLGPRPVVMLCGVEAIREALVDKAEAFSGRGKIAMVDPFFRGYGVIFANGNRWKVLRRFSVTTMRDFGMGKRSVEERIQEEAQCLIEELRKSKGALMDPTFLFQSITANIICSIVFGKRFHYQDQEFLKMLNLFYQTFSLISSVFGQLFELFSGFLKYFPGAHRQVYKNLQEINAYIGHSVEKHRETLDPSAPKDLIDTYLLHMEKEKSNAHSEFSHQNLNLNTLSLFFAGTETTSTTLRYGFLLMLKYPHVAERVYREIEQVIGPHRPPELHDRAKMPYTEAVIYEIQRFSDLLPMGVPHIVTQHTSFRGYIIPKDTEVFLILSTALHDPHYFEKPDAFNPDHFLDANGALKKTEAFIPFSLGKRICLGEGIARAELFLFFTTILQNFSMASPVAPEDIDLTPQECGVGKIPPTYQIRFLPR
The experiment in a line: Mechanism based inhibition of human cytochrome P450 2B6. Format: ADME.

A further data set concerns the target Cytochrome P450 2C19 (Homo sapiens, UniProt P33261). Briefly: Mechanism based inhibition of human cytochrome P450 2C19. The data set is classed as ADME.
The target of another data set is Cytochrome P450 2C9 (Homo sapiens, UniProt P11712). The experiment in a line: Mechanism based inhibition of human cytochrome P450 2C9. Format: ADME.
Sequence of Cytochrome P450 2C9 (P11712 whole entry): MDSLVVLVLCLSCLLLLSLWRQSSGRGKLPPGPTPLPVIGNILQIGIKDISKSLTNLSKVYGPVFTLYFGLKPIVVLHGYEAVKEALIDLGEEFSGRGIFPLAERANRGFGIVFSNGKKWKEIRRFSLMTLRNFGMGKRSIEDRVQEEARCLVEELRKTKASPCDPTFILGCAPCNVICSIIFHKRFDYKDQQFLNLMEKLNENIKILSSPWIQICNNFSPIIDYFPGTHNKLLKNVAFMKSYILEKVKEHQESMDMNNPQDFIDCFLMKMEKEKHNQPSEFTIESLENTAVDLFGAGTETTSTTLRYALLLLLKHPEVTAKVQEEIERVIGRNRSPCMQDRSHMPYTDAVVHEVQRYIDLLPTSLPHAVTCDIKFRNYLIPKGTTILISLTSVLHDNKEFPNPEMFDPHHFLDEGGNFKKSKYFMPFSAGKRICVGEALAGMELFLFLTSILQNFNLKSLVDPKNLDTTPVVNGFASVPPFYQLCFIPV
For data set [3], the target named is T3, CYP1A2. The experiment in a line: Mechanism based inhibition of human cytochrome P450 1A2. Format: ADME.
Data set [4] addresses T5, CYP2B6 (Homo sapiens, UniProt P20813).
T5 sequence (P20813 whole entry): T4 sequence (P20813 whole entry)
Briefly: (§2) Mechanism based inhibition of human cytochrome P450 2B6 using human liver microsomes. Particulars: human, human liver microsomes. For orientation: Liver microsomes are vesicles of endoplasmic reticulum, rich in cytochrome P450 enzymes.

Data set [5] concerns the target T4, Cytochrome P450 2B6. The data set is described as §2.
Data set [6] has as its target T5, CYP2B6. Briefly: (§3) Mechanism based inhibition of human cytochrome P450 2B6 using recombinant CYP2B6. The settings on record: human, recombinant CYP2B6.
The target of data set [7] is T4, Cytochrome P450 2B6. The data set is described as §3.

For orientation: kinact means the rate constant of inactivation at saturating inhibitor.

Structures are written as SMILES.

Sequence of Cytochrome P450 2A13 (Q16696 whole entry): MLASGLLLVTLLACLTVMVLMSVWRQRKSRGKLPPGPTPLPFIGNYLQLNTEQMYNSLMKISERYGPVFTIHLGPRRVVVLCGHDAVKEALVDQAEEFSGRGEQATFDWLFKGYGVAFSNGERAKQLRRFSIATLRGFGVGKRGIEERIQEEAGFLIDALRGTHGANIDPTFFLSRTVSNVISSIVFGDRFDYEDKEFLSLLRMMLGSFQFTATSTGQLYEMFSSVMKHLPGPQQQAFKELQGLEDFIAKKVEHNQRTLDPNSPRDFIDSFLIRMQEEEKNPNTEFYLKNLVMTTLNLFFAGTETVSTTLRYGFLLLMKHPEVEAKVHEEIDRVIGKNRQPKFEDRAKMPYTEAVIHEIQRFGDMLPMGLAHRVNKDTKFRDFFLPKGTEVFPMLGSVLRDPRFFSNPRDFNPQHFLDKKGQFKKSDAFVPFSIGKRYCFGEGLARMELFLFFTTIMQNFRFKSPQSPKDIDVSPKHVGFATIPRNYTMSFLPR
Sequence of Cytochrome P450 2C19 (P33261 whole entry): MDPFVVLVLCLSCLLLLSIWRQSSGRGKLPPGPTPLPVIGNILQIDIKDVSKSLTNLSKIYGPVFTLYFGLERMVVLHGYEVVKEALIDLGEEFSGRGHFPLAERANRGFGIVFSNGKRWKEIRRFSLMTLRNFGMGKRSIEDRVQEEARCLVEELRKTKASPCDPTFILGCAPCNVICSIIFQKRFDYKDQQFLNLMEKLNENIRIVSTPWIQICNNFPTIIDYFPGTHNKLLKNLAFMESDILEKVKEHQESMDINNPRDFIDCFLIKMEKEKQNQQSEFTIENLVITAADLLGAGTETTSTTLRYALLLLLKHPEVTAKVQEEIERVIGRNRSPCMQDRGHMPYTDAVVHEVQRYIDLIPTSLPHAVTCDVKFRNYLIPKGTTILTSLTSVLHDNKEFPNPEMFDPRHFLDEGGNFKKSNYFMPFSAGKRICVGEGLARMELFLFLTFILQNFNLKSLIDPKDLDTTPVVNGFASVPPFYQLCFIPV

Regarding `COc1c2occc2cc2ccc(=O)oc12` [METHOXSALEN], at Cytochrome P450 2A13, the mechanism based inhibition result was “Cytochrome P450 mechanistic inhibitor: PMID 15579482”.
For the compound `O=C(NCCc1ccc([N+](=O)[O-])cc1)C(F)Cl` (configuration not stated), the mechanism based inhibition entry at Cytochrome P450 2B1 was “Cytochrome P450 mechanistic inhibitor: PMID 1971568”.
`Cc1c(-c2cnccn2)ssc1=S` [OLTIPRAZ] yielded a Ki on Cytochrome P450 1A2 of 9000 nM. In addition, the inactivation rate constant (kinact) on CYP1A2 [1] was 0.00317 s⁻¹.
As to `Cn1cc[nH]c1=S` [METHIMAZOLE], the mechanism based inhibition entry on Cytochrome P450 2B6 [2], at Cytochrome P450 2C19 and on Cytochrome P450 2C9 was “Cytochrome P450 mechanistic inhibitor: PMID 9172960” in each case.
Turning to `Cc1nc2c([nH]1)c(=O)n(C)c(=O)n2CC1CCCCC1`, the maximal inactivation rate constant (kinact) on CYP1A2 [3] was 0.0148 s⁻¹.
Regarding `COC(=O)[C@H](c1ccccc1Cl)N1CCc2sccc2C1` [CLOPIDOGREL], the figures for the maximal inactivation rate constant (kinact) at CYP2B6 [4] and at CYP2B6 [6] were 0.00583 s⁻¹ and 0.0025 s⁻¹, respectively. The figures for the Ki on Cytochrome P450 2B6 [5] and on Cytochrome P450 2B6 [7] were 500 nM and 1100 nM, respectively.

Values taken from ChEMBL document CHEMBL1743341, “Cytochrome p450 enzymes mechanism based inhibitors: common sub-structures and reactivity” (Curr Drug Metab, 2005).
